Reference: patent publication US20160313303A1, “BICOMPATIBLE LIQUID AND METHOD FOR SCREENING SAME” (KABUSHIKI KAISHA TOYOTA CHUO KENKYUSHO, priority 2015, published 2016)
Where two headings read alike, the source gives them in different places.

Key:
[1] = test system: Human airway epithelial cell line BEAS-2B; test: Cytotoxicity test (WST-8 assay) after direct contact of test liquids with cells for about 2 hours; normalized cell survival rate; conditions: direct contact with test liquid about 2 hours, WST-8 24 hours after contact, control liquid (0.5% FBS-containing RPMI-1640) = 1
[2] = test system: leaves of Arabidopsis thaliana; test: Soaking of plant leaves in organic solvents, observation of appearance; conditions: for change in the appearance of leaves: leaf of A. thaliana soaked in the solvent, observed after 2 hours
Method: (§1) Further, the leaves used for the test after observation were soaked in water over 16 hours followed by observation. Water was used as a control. Although water is cytotoxic to naked cells, it is not cytotoxic to cells having cell walls, and thus could be used as a control.

[3] = test system: leaves of Arabidopsis thaliana
Method: as §1

[4] = test system: human airway epithelial cells Calu-3; test: Transepithelial electric resistance (TER) of cells on porous support after contact with non-hydrophilic liquids; assay type: cell-based; conditions: Calu-3, 3 hours contact with 200 ul liquid, TER after 24 hours in fresh medium, FIG. 18
Method: In the present Example, an action of non-hydrophilic liquids having the fluorocarbon structure was evaluated using human airway epithelial cells Calu-3. As a device for evaluation, the evaluation device 20 illustrated in FIG. 16 was used. […] At the bottom of each insert, a porous support 28 is provided that can retain and cultivate cells.
Cells were inoculated on each support 28 in the insert 24 and the space in the well 22 other than the insert 24 and the cavity in the insert 24 were filled with the cell growth medium. The evaluation device 20 was then left to stand in a CO2 incubator for a few days to allow dense growth of cells on the whole upper surface of the support 28, thereby carrying out the pre-cultivation step. In the pre-cultivation step, the transepithelial electric resistance (TER) was measured over time to confirm that a barrier (coverage and functional tight junctions) was constructed on the surface of the cells that is in contact with the insert 24.
Next, a cell structure illustrated in FIG. 17 was prepared. […]
After 24 hours, the cells on the support 28 in the cell structure removed from the CO2 incubator were again measured for the transepithelial electric resistance (TER) after removal of the growth medium in order to confirm the extent of formation of the cell barrier. […]

[5] = test system: human airway epithelial cells Calu-3; test: WST-8 absorbance of cells on porous support after contact with solutions of PFOA in hydrofluoroether; assay type: cell-based; conditions: PFOA in hydrofluoroether (C4F9OC2H5); for absorbance (WST-8): 15 hours
Method: In the present Example, hydrofluoroether (C4F9OC2H5) was used as the non-hydrophilic liquid and perfluorooctanoic acid (PFOA) was used as the non-hydrophilic substance. Solutions of PFOA in hydrofluoroether having various PFOA concentrations ([…], 1 and 10 g/L) were prepared. The solutions correspond to the second liquid of the present disclosure.
In the similar manner as Example 4 except that the solutions of PFOA in hydrofluoroether were used, the procedure was carried out up to the pre-cultivation step. Thereafter the cultivation step was carried out by using the solutions as the second liquid and leaving the device in the CO2 incubator for 15 hours.
Thereafter […], was removed from the cavity of the insert 24, 200 μl of an aqueous solution of a medium containing WST-8 (2-(2-methoxy-4-nitrophenyl)-3(4-nitrophenyl)-5-(2,4-disulfophenyl)-2H-tetrazolium), which is a kind of a tetrazolium salt, was added and the device was let to stand in the CO2 incubator for 20 minutes for cultivation.
Thereafter 100 μl of the medium was transferred from the insert 24 of the cell structure into a microplate and the absorbance at the wavelengths 450 nm and 600 nm was measured.

Compound	Normalized cell survival rate [1]	other results
CCOCC [P4, Diethyl ether, reference compound]	0.01	–
O [P1, Water, reference compound]	0.01	–
C[Si](C)(C)O[Si](C)(C)C [S16, OS-10 (Hexamethyldisiloxane)]	0	–
C[Si]1(C)O[Si](C)(C)O[Si](C)(C)O[Si](C)(C)O[Si](C)(C)O1 [S19, Decamethylcyclopentasiloxane]	0.92	–
CC(C)=O [P3, Acetone, reference compound]	0.01	change in the appearance of leaves [2]: eroded epidermal cells of the leaves of A. thaliana and caused effusion of chlorophyll; change in the appearance of leaves after subsequent soaking in water ([2]; leaves after the 2 hours test soaked in water over 16 hours, compared to control water): caused atrophy (deformation) of leaves of A. thaliana
C[Si](C)(C)O[Si](C)(C)O[Si](C)(C)C [S17, OS-20 (Octamethyltrisiloxane)]	0.05	–
C[Si](C)(C)O[Si](C)(C)O[Si](C)(C)O[Si](C)(C)C [S18, OS-30 (Decamethyltetrasiloxane)]	0.92	–
OCC(F)(F)C(F)(F)C(F)(F)C(F)(F)C(F)(F)C(F)F [S4, 1H,1H,7H-Dodecafluoro-1-heptanol]	0.01	–
CCO [P2, Ethanol, reference compound]	0.01	change in the appearance of leaves [3]: eroded epidermal cells of the leaves of A. thaliana and caused effusion of chlorophyll
FC(F)(F)c1cccc(C(F)(F)F)c1 [S1, 1,3-Bis(Trifluoromethyl) Benzene]	0.01	–
COC(F)(F)C(F)(F)C(F)(F)F [S21, HFE-7000]	1.01	–
COC(F)(C(F)(F)C(F)(F)F)C(F)(C(F)(F)F)C(F)(F)F (stereo not shown) [S7, HFE-7300]	0.92	change in the appearance of leaves [2]: did not change an appearance of leaves of A. thaliana
FC(F)(F)C(F)(F)C(F)(F)C(F)(F)C(F)(F)C(F)(F)F [S2, Perfluorohexane, PFC 5060]	–	effect on cell death or intercellular tight junctions (TER) [4]: significantly promoted cell death and the like
FC(F)(F)C(F)(F)C(F)(F)C(F)(F)C(F)(F)C(F)(F)C(F)(F)C(F)(F)Br [S20, 1-Bromoperfluorooctane]	1.2	–
O=C(O)C(F)(F)C(F)(F)C(F)(F)C(F)(F)C(F)(F)C(F)(F)C(F)(F)F [PFOA, perfluorooctanoic acid]	–	PFOA concentration with an action of causing cell death ([5]; Calu-3, 15 hours): ≥ 1 g/L; absorbance (WST-8) ([5]; at or above 1 g/L of PFOA): hardly detected; absorbance (WST-8) ([5]; until PFOA concentration 0.1 g/L): almost at the same level
HFE-7200 [S6]	0.88	effect on cell death or intercellular tight junctions (TER) [4]: had less effect on cell death or intercellular tight junctions than perfluorohexane, which effect was almost the same as the controls; change in the appearance of leaves [2]: did not change an appearance of leaves of A. thaliana
COC(F)(F)C(F)(F)C(F)(F)C(F)(F)F [S5, HFE-7100]	1.04	–
